Test results: patent US6380239B1, “Substituted 1-oxo- and 1,3-dioxoisoindoline and method of reducing inflammatory cytokine levels” (Celgene Corporation, priority 1999, dated 2002)

Row | SMILES | melting point [°C]
1 | NC(=O)CCC(C(=O)O)N1C(=O)c2cccc([N+](=O)[O-])c2C1=O (stereo not shown) [Example 17, 2-(4-Nitro-1,3-dioxoisoindolin-2-yl)-4-carbamoylbutanoic acid] | 182 to 184
2 | Nc1cccc2c1C(=O)N(C(CCC(=O)O)C(=O)O)C2=O (stereo not shown) [Example 16, 1-(4-Amino-1,3-dioxoisoindolin-2-yl)propane-1,3-dicarboxylic acid] | 198 to 200
3 | NC(=O)CCC(C(=O)O)N1C(=O)c2cccc(N)c2C1=O (stereo not shown) [Example 18, 2-(4-Amino-1,3-dioxoisoindolin-2-yl)-4-carbamoylbutanoic acid] | 165 to 167
4 | Nc1cccc2c1CN(C(CCC(=O)O)C(=O)O)C2=O (stereo not shown) [Example 14, 1-(4-Amino-1-oxoisoindolin-2-yl)propane-1,3-dicarboxylic acid] | 183 to 185
